One assay relates to MCP-1. Briefly: MCP-1 release in LPS-stimulated RAW 264.7 cells. The class given is cell-based. As to conditions: Mus musculus, RAW264.7, LPS 10 ng/ml, 2.5 hours, compound pre-incubation 1 hour. As for the experimental part:
(§1) Assay for TNFα and MCP-1 Release in RAW 264.7 Cells:
(§2) Cells were seeded at a density of 50000 cells/well/100 μl in a 96 well plate and left overnight in the CO2 incubator under normal cell culture conditions for adherence. Next day, old media was removed and fresh media added per well with compounds in duplicate for 1 hour with 0.1% DMSO. Cells were stimulated with LPS (Lipopolysaccharides) at 10 ng/ml and incubated at cell culture conditions for 2.5 hours. Post incubation, the supernatant was collected in fresh 96 well plate and stored at −80 degree for TNF-α, and MCP-1 estimation.
(§3) The dose-response curve was analyzed using Sigma Plot/Graph Pad. The IC50 (concentration of the test compounds where 50% of compounds' maximal activity is observed) values were calculated from the dose-response curve.

A further assay relates to TNFα. Description: TNFα release in LPS-stimulated RAW 264.7 cells. In kind it is cell-based. To be noted: Mus musculus, RAW264.7, LPS 10 ng/ml, 2.5 hours, compound pre-incubation 1 hour, read-out: TNF-alpha IC50. As for the experimental part: as §1, §2, §3

Four molecules from US20210236443A1, “METHOD OF TREATMENT OF NON-ALCOHOLIC STEATOHEPATITIS, NASH” (KRISH BIOTECH RESEARCH PRIVATE LIMITED, priority 2018, published 2021) can be followed below.

As usually defined, the IC50 is the concentration that gives 50% inhibition.

As to `CC1(c2ccc(-c3ccc(F)cc3COc3ccc(CCCC(=O)O)cc3)cc2)CC1` [SI. No. 2, 4-(4-((4-Fluoro-4′-(1-methylcyclopropyl)-[1,1′-biphenyl]-2-yl)methoxy)phenyl)butanoic acid], the IC50 in the assay with MCP-1 was determined as 290 nM; in the assay with TNFα, 5650 nM.
The corresponding values for `O=C(O)CCCc1ccc(OCc2cc(F)ccc2-c2ncc(C3CC3)s2)cc1` [SI. No. 24, 4-(4-((2-(5-Cyclopropylthiazol-2-yl)-S-fluorobenzyl)oxy)phenyl)butanoic acid] are 230 nM and 630 nM.
The corresponding values for `CC1(c2ccc(-c3ccc(F)cc3COc3ccc(CCCC(=O)O)cc3)s2)CC1` [SI. No. 20, 4-(4-((5-Fluoro-2-(5-(1-methylcyclopropyl)thiophen-2-yl)benzyl)oxy)phenyl) butanoic acid] are 1080 nM and 660 nM.
In the case of `O=C(O)CCCc1ccc(OCc2cc(F)ccc2-c2ccc(C3CC3)s2)cc1` [SI. No. 8, 4-(4-((2-(5-Cyclopropylthiophen-2-yl)-S-fluorobenzyl)oxy)phenyl)butanoic acid], the IC50 with MCP-1 was 2040 nM; in the assay with TNFα, over 10000 nM.
